Source: US7910600B2, “Therapeutic kinase modulators” (Cylene Pharmaceuticals, Inc., priority 2007, dated 2011)

Assays:
[1] = test system: HCT-116 human colorectal carcinoma cells; experiment: Cell proliferation assay (Alamar Blue), HCT-116; assay type: cell-based; settings: HCT-116 cell line
Description: (§1) A representative cell-proliferation assay protocol using Alamar Blue dye (stored at 4° C., use 20 ul per well) is described hereafter.
(§2) 96-Well Plate Setup and Compound Treatment
(§3) • a. Split and trypsinize cells. • b. Count cells using hemocytometer. • c. Plate 4,000-5,000 cells per well in 100 μl of medium and seed into a 96-well plate according to the following plate layout. Add cell culture medium only to wells B10 to B12. Wells B1 to B9 have cells but no compound added.
(§4) • d. Add 100 μl of 2× drug dilution to each well in a concentration shown in the plate layout above. At the same time, add 100 μl of media into the control wells (wells B10 to B12). Total volume is 200 μl/well. • e. Incubate four (4) days at 37° C., 5% CO2 in a humidified incubator. • f. Add 20 μl Alamar Blue reagent to each well. • g. Incubate for four (4) hours at 37° C., 5% CO2 in a humidified incubator. • h. Record fluorescence at an excitation wavelength of 544 nm and emission wavelength of 590 nm using a microplate reader.
(§5) In the assays, cells are cultured with a test compound for approximately four days, the dye is then added to the cells and fluorescence of […] dye is detected after approximately four hours. Different types of cells can be utilized in the assays (e.g., HCT-116 human colorectal carcinoma cells, PC-3 human prostatic cancer cells and MiaPaca human pancreatic carcinoma cells).

[2] = biological target: T1, recombinant human CK2 (Homo sapiens, UniProt P68400); experiment: Cell-free CK2 assay; assay type: biochemical; settings: for inhibition at 0.5 µM: read-out: CK2: % inh 500 nM
T1 construct: purchased Upstate
T1 sequence (P68400 whole entry): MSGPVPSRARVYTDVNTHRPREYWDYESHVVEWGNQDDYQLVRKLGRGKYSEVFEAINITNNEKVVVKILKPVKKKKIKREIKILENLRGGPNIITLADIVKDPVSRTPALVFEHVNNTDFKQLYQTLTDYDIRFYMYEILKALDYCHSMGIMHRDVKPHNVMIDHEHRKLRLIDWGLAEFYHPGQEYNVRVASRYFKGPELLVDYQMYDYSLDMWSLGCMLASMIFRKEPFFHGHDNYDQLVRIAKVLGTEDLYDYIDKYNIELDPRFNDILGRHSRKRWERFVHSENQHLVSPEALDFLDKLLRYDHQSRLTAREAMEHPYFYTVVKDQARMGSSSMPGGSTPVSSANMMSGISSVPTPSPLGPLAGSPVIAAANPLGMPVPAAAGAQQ
T1 sequence (P67870 whole entry partner): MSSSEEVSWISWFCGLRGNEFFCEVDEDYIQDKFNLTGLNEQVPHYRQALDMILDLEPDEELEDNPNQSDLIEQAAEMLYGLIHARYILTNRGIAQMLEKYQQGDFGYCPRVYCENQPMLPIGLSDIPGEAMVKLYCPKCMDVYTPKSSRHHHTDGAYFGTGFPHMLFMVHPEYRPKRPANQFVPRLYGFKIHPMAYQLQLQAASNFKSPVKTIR
Description: Modulatory activity of compounds described herein is assessed in vitro in cell-free CK2 assays. These assays are described hereafter.
Test compounds in aqueous solution are added at a volume of 10 microliters, to a reaction mixture comprising 10 microliters Assay Dilution Buffer (ADB; 20mM MOPS, pH 7.2, 25 mM beta-glycerolphosphate, 5 mM EGTA, 1 mM sodium orthovanadate and 1 mM dithiothreitol), 10 microliters of substrate peptide (RRRDDDSDDD (SEQ ID NO:4), dissolved in ADB at a concentration of 1 mM), 10 microliters of recombinant human CK2 (25 ng dissolved in ADB; Upstate). Reactions are initiated by the addition of 10 microliters of ATP Solution (90% 75 mM MgC12, 75 micromolar ATP dissolved in ADB; 10% [γ-^33P]ATP (stock 1 mCi/100 μl; 3000 Ci/mmol (Perkin Elmer) and maintained for 10 minutes at 30 degrees C. The reactions are quenched with 100 microliters of 0.75% phosphoric acid, then transferred to and filtered through a phosphocellulose filter plate (Millipore). After washing each well 5 times with 0.75% phosphoric acid, the plate is dried under vacuum for 5 min and, following the addition of 15 ul of scintillation fluid to each well, the residual radioactivity is measured using a Wallac […].

[3] = test system: MiaPaca human pancreatic carcinoma cells; experiment: Cell proliferation assay (Alamar Blue), MiaPaCa; assay type: cell-based; settings: MIA PaCa-2, MiaPaCa cell line
Description: as §1, §2, §3, §4, §5

[4] = test system: PC-3 human prostatic cancer cells; experiment: Cell proliferation assay (Alamar Blue), PC3; assay type: cell-based; settings: PC3 cell line
Description: as §1, §2, §3, §4, §5

[5] = test system: K562; experiment: Cell proliferation assay (Alamar Blue), K562; assay type: cell-based; settings: Homo sapiens; K562 cell line
Description: as §1, §2, §3, §4, §5

[6] = test system: MV-4-11; experiment: Cell proliferation assay (Alamar Blue), MV-4-11; assay type: cell-based; settings: Homo sapiens, MV4-11; MV-4-11 cell line
Description: as §1, §2, §3, §4, §5

[7] = test system: BxPC3; experiment: Cell proliferation assay (Alamar Blue), BxPC3; assay type: cell-based; settings: Homo sapiens, BXPC-3; BxPC3 cell line; read-out: Bx-PC3
Description: as §1, §2, §3, §4, §5

[8] = test system: MDA-MB231; experiment: Cell proliferation assay (Alamar Blue), MDA-MB231; assay type: cell-based; settings: Homo sapiens, MDA-MB-231; MDA-MB231 cell line
Description: as §1, §2, §3, §4, §5

Structure (SMILES)	IC50 [1] [µM]	inhibition at 0.5 µM [2] [%]	IC50 [3] [µM]	IC50 [4] [µM]	IC50 [5] [µM]	IC50 [6] [µM]	IC50 [7] [µM]	IC50 [8] [µM]	IC50 [2] [µM]
COC(=O)c1ccc2c(c1)nc(-c1cnn(C)c1)c1nc(S(C)(=O)=O)ncc12	0.9	11							
Nc1cccc(-c2nc3cc(C(=O)NCCN4CCCC4)ccc3c3cnccc23)c1	> 10	56							
COC(=O)c1ccc2c(c1)nc(-c1ccccc1)c1nc(SC)ncc12 [methyl 3-(methylthio)-5-phenylpyrimido[4,5-c]quinoline-8-carboxylate]	2	-26							
O=C(O)c1ccc2c(c1)nc(-c1ccccc1OC(F)(F)F)c1ccncc12	> 10	23	> 10	> 10					
COC(=O)c1ccc2c(c1)nc(-c1ccccc1)c1ccncc12 [Methyl 5-phenylbenzo[c][2,6]naphthyridine-8-carboxylate]	2.9	-34			> 10	> 10			
CN1CCN(C(=O)c2ccc3c(c2)nc(-c2ccccc2)c2ccncc23)CC1	> 10	57			> 10	> 10			
CN(C)C(=O)c1ccc2c(c1)nc(-c1ccccc1)c1ccncc12	> 10	0			> 10	> 10			
COC(=O)c1ccc2c(c1)nc(-c1c(C)noc1C)c1ccncc12		-5							
Nc1cccc(-c2nc3cc(C(=O)O)ccc3c3cnccc23)c1	> 10	97	> 10			> 10	> 10	> 10	0.027
CC(=O)Nc1cccc(-c2nc3cc(C(=O)NCc4cnc(C)cn4)ccc3c3cnccc23)c1	> 10	-6							
Cc1noc(C)c1-c1nc2cc(C(=O)O)ccc2c2cnccc12		52							
Cc1cnc(CNC(=O)c2ccc3c(c2)nc(-c2cccc(N)c2)c2ccncc23)cn1	> 10	-24							
CC(=O)Nc1cccc(-c2nc3cc(C(=O)N4CCCN(C)CC4)ccc3c3cnccc23)c1	> 10	30							
Fc1ccc2c(c1)nc(-c1cccc(OC(F)(F)F)c1)c1ccncc12		-35							
CN1CCCN(C(=O)c2ccc3c(c2)nc(-c2ccccc2)c2ccncc23)CC1	> 10	-15			> 10	> 10			
CC(=O)Nc1cccc(-c2nc3cc(C(=O)NCCN4CCCC4)ccc3c3cnccc23)c1	> 10	89							0.144
Cc1cscc1-c1nc2cc(C(=O)O)ccc2c2cnccc12		87							
O=C(O)c1ccc2c(c1)nc(-c1ccc(Cl)s1)c1ccncc12		99							
O=C(NC1CC1)c1ccc2c(c1)nc(-c1ccccc1)c1ccncc12	> 10	-9			> 10	> 10			

Structure (SMILES)	IC50 [1] [µM]	inhibition at 0.5 µM [2] [%]	IC50 [3] [µM]	IC50 [4] [µM]	IC50 [5] [µM]	IC50 [6] [µM]	IC50 [7] [µM]	IC50 [8] [µM]	IC50 [2] [µM]
CC(=O)Nc1cccc(-c2nc3cc(C(=O)NCC4CCCCN4C)ccc3c3cnccc23)c1 (stereo not drawn)	> 10	40							
Fc1ccc2c(c1)nc(-c1ccncc1)c1ccncc12		-37							
Cn1cc(-c2nc3cc(C(=O)O)ccc3c3cnccc23)cn1	> 10	98	> 10		> 10	> 10	> 10	> 10	0.004
CC(=O)Nc1cccc(-c2nc3cc(C(=O)NN4CCOCC4)ccc3c3cnccc23)c1	> 10	19							
COC(=O)c1ccc2c(c1)nc(-c1cnn(C)c1)c1ccncc12 [Methyl 5-(1-methyl-1H-pyrazol-4-yl)benzo[c][2,6]naphthyridine-8-carboxylate]	2.5	-49			> 10	> 10			
COC(=O)c1ccc2c(c1)nc(-c1cscc1C)c1ccncc12		4							
CCCNC(=O)c1ccc2c(c1)nc(-c1ccccc1)c1ccncc12	> 10	-26			> 10	> 10			
Fc1ccc2c(c1)nc(-c1ccccc1)c1ccncc12		-51							
O=C(O)c1ccc2c(c1)nc(-c1ccccc1)c1ccncc12 [5-phenylbenzo[c][2,6]naphthyridine-8-carboxylic acid]	> 10	97	> 10		> 10	8.1	> 10	> 10	0.013
Cn1cc(-c2nc3cc(C(=O)NC4CC4)ccc3c3cnccc23)cn1	1	-15				2.7			
NC(=O)c1ccc2c(c1)nc(-c1ccccc1)c1ccncc12	> 10	27			> 10	1.4			
Cn1cc(-c2nc3cc(C(N)=O)ccc3c3cnccc23)cn1	> 10	7			> 10	2.9			
N#Cc1cccc(-c2nc3cc(C(=O)O)ccc3c3cnccc23)c1	> 10	98	> 10	> 10					0.045
Nc1cccc(-c2nc3cc(C(=O)NN4CCOCC4)ccc3c3cnccc23)c1	> 10	-28							
CN(C)C(=O)c1ccc2c(c1)nc(-c1cnn(C)c1)c1ccncc12	> 10	-13			> 10	> 10			
CC(=O)Nc1cccc(-c2nc3cc(C(=O)O)ccc3c3cnccc23)c1	> 10	93	> 10		> 10	> 10	> 10	> 10	0.042
CN1CCCN(C(=O)c2ccc3c(c2)nc(-c2cccc(N)c2)c2ccncc23)CC1	> 10	-21							
CC(=O)Nc1cccc(-c2nc3cc(C(=O)N4CCN(C)CC4)ccc3c3cnccc23)c1	> 10	6							
CCCNC(=O)c1ccc2c(c1)nc(-c1cnn(C)c1)c1ccncc12	> 10	-21			> 10	> 10			
